Tests used:
RORγt = molecular target: T1, RORγt (Homo sapiens, UniProt P51449); assay: Indigo Biosciences Human RAR-related Orphan Receptor, Gamma Reporter Assay (in vitro inhibition of RORγt); assay type: cell-based; conditions: RORγt reporter cells, luciferase readout, 22-24 h incubation; read-out: IC50 range
T1 sequence (P51449 269-508 limits assumed): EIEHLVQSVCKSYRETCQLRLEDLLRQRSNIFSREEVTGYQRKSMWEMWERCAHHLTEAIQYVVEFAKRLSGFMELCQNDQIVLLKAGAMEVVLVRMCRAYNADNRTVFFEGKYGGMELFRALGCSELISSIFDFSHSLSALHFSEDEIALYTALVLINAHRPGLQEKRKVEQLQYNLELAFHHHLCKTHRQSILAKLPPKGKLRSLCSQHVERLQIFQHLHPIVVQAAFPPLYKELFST
Experimental: The in vitro inhibition of RORγt was measured using Indigo Biosciences Human RAR-related Orphan Receptor, Gamma Reporter Assay System (Product #IB304001-32) as described in the technical manual. In brief, 200 μL of Reporter Cells is dispensed into wells of the assay plate and preincubated for 4-6 h. Following the pre-incubation period, culture media are discarded and 200 µL/well of the prepared 1×-concentration treatment media are added. Following 22-24 h incubation, treatment media are discarded and Luciferase Detection Reagent is added. The intensity of light emission (in units of ‘Relative Light Units’; RLU) from each assay well is quantified using a plate-reading luminometer. Average values of RLU were determined for each treatment concentration. Non-linear regression analyses were performed and IC50 values determined using GraphPad Prism software. Provided inverse-agonists ursolic acid served as positive control.

[1] = Microsomal stability, human liver microsomes
Experimental: (§1) The conversion to the metabolite was monitored by HPLC-MS/MS. Verapamil served as positive control.
(§2) The metabolism was monitored by HPLC-MS/MS. Verapamil served as positive control. The intrinsic clearance was calculated from the measured remaining compound values.
as §2

[2] = Mouse pharmacokinetics, oral or intravenous cassette dosing; assay type: in vivo, mice (C57BL/6J); conditions: C57BL/6J, whole blood; for bioavailability: 5 mg/kg oral vs 1 mg/kg intravenous, read-out: F (bioavailability)
Experimental: The pharmacokinetics of the compounds of the present invention was evaluated in 3 male and 3 female mice (C57BL/6J, 8 week old) after oral or intravenous cassette dosing to assess the oral bioavailability. Dose was 5 mg/kg (oral) and 1 mg/kg (intravenous), application volume was 5 mL/kg (oral) and 0.5 mL/kg (intravenous), vehicle was 5% solutol, 95% NaCl solution (at 0.9% saline concentration) for oral and 5% solutol, 5% Ethanol, 90% NaCl solution (at 0.9% saline concentration) for intravenous. At each designated time point (0.25, 0.5, 1, 2, 4, 8 and 24 h after dosing), 20 μL whole blood were collected from the tail vein into Li-heparin tubes, frozen on dry ice within 1-2 minutes of sampling and stored at −20° C. until processed for LC-MS analysis. The obtained data is as follows:
(§3) The pharmacokinetics of additional compounds of the present invention was evaluated in 3 female mice (C57BL/6J, 8 week old) after oral cassette dosing. Dose was 5 mg/kg, application volume was 5 mL/kg, vehicle was 5% solutol, 95% NaCl solution (at 0.9% saline concentration). At each designated time point (0.5, 1, 2, 4, 8 and 24 h after dosing), 20 μL whole blood were collected from the tail vein into Li-heparin tubes, frozen on dry ice within 1-2 minutes of sampling and stored at −20° C. until processed for LC-MS analysis. The obtained data is as follows:
as §3, with “(0.25, 0.5,” for “(0.5,”, “4 and” for “4,”, “8” for “8 and 24”, “analysis.” for “analysis. The obtained data is as follows:”

[3] = Cell viability assay accompanying the SARS-CoV-2 assay; assay type: cell-based; conditions: cell viability assay of the SARS-CoV-2 test
Excerpt: (§4) The assay for viral replication (YFP) and the cell viability assay has been described in general in Pathogens 2021; 10:1076 and applied to compounds of the present invention furnished the following results: […]

SARS-CoV-2 = assay: Antiviral activity on SARS-CoV-2, viral replication (YFP) assay; assay type: cell-based; conditions: Severe acute respiratory syndrome coronavirus 2, read-out: EC50 range
Excerpt: as §4

[4] = Rat pharmacokinetics, oral or intravenous cassette dosing; assay type: in vivo, rats (strain Wistar RjHAN); conditions: for AUC(0-inf) / AUC(0-t) / C0 / CL/F / Cmax / bioavailability: Wistar RjHAN, rat, plasma; for bioavailability: po 5 mg/kg vs iv 1 mg/kg
Experimental: The pharmacokinetics of the deuterated compounds of the present invention was evaluated in 3 male and 3 female rats (strain Wistar RjHAN, 7-8 week old) after oral or intravenous cassette dosing to asses the oral bioavailability. Rats are provided with a catheter in the jugular vein (2-3 days prior to blood sampling). At each designated time point (1, 2, 4, 8 and 24 h after dosing), 100 μL blood were collected into Li-heparin tubes, stored on ice until centrifugation (10 minutes at 3000 g, 4° C.) and plasma was prepared within 45 min after collection, frozen at −20° C. and stored at this temperature until processed for LC-MS analysis.

[5] = Microsomal stability, mouse liver microsomes; conditions: mouse, 60 min
Experimental: as §1
The metabolism was monitored by HPLC-MS/MS.
Verapamil served as positive control. The intrinsic clearance was calculated from the measured remaining compound values.

[6] = Microsomal stability, rat liver microsomes; conditions: 60 min
Experimental: as §1, §2

[7] = 3 female mice, 5 mg/kg oral cassette, sampling 0.25-8 h
[8] = 3 female mice, 5 mg/kg oral cassette, sampling 0.25-8 h, read-out: AUC0-8 h

## [2H]C(C)(O)C([2H])([2H])n1ncc(-c2onc(-c3c(F)cccc3Cl)c2-c2ncccn2)c1C(F)(F)F (stereo not shown) [Example 1/1, 1-(4-(3-(2-Chloro-6-fluorophenyl)-4-(pyrimidin-2-yl)isoxazol-5-yl)-5-(trifluoromethyl)-1H-pyrazol-1-yl)propan-1,1,2-d3-2-ol]
RORγt
  IC50: 0.01 to 0.1 µM
[1]; both
  microsomal CLint: 7.8 µL/min/mg

## [2H]C([2H])(OC([2H])(C([2H])([2H])[2H])C([2H])([2H])[2H])c1c(-c2c(F)cccc2Cl)noc1-c1cnn(-c2cccc(Cl)c2)c1C(F)(F)F [Example 102/2]
[2]; [7]
  Cmax: 112 ng/mL
  half-life: 2.8 h
[2]; [8]
  AUC(0-t): 280 ng·h/mL
[3]
  CC50: > 100 µM
RORγt
  IC50: < 0.01 µM
SARS-CoV-2
  EC50: < 0.1 µM

## [2H]C([2H])(OC(C)C)c1c(-c2c(F)cccc2Cl)noc1-c1cnn(-c2cccc(Cl)c2)c1C(F)(F)F [Example 102/1]
[2]; [7]
  Cmax: 922 ng/mL
  half-life: 2.6 h
[2]; [8]
  AUC(0-t): 2350 ng·h/mL
[3]
  CC50: > 100 µM
RORγt
  IC50: < 0.01 µM
SARS-CoV-2
  EC50: < 0.1 µM

## [2H]C([2H])(CC(C)(C)O)n1ncc(-c2onc(-c3c(F)cc(OC)cc3Cl)c2-c2ncccn2)c1C(F)(F)F [Example 5, 4-(4-(3-(2-Chloro-6-fluoro-4-methoxyphenyl)-4-(pyrimidin-2-yl)isoxazol-5-yl)-5-(trifluoro-methyl)-1H-pyrazol-1-yl)-2-methylbutan-4,4-d2-2-ol]
[3]
  CC50: > 100 µM
RORγt
  IC50: 0.1 to 1 µM
SARS-CoV-2
  EC50: 0.1 to 1 µM

## [2H]C(C)(O)Cn1ncc(-c2onc(-c3c(F)cccc3Cl)c2-c2ncccn2)c1C(F)(F)F (stereo not shown) [Comparative Example C1/1, reference compound]
[1]; both
  microsomal CLint: 10.5 µL/min/mg

## [2H]C([2H])(CC(C)(C)O)n1ncc(-c2onc(-c3c(F)cccc3Cl)c2-c2ncccn2)c1COC [10/2]
[3]
  CC50: > 100 µM
RORγt
  IC50: 0.1 to 1 µM
SARS-CoV-2
  EC50: 1 to 50 µM

## [2H]C([2H])(OC1CC1)c1c(-c2c(F)cccc2Cl)noc1-c1cnn(C([2H])([2H])CC(C)(C)O)c1C(F)(F)F [Example 9, 4-(4-(3-(2-Chloro-6-fluorophenyl)-4-(cyclopropoxymethyl-d2)isoxazol-5-yl)-5-(trifluoro-methyl)-1H-pyrazol-1-yl)-2-methylbutan-4,4-d2-2-ol]
[3]
  CC50: 18 µM
RORγt
  IC50: 0.01 to 0.1 µM
SARS-CoV-2
  EC50: 0.1 to 1 µM

## [2H]C([2H])(OC([2H])([2H])C([2H])([2H])[2H])c1c(-c2c(F)cccc2Cl)noc1-c1cnn(-c2cccc(Cl)c2)c1C(F)(F)F [Example 110/1]
[3]
  CC50: > 100 µM
RORγt
  IC50: 0.01 to 0.1 µM
SARS-CoV-2
  EC50: < 0.1 µM

## [2H]C([2H])(CC(C)(C)O)n1ncc(-c2onc(-c3c(F)cccc3Cl)c2-c2nccs2)c1C(F)(F)F [Example 3-1]
[3]
  CC50: 17 µM
RORγt
  IC50: < 0.01 µM
SARS-CoV-2
  EC50: < 0.1 µM

## [2H]C([2H])([2H])c1c(-c2onc(-c3c(F)cccc3Cl)c2-c2ncccn2)cnn1C([2H])([2H])CC(C)(C)O [Example 10/1]
[3]
  CC50: > 100 µM
RORγt
  IC50: 0.1 to 1 µM
SARS-CoV-2
  EC50: 0.1 to 1 µM

## [2H]C([2H])(CC(C)(C)O)n1ncc(-c2onc(-c3c(F)cccc3Cl)c2-c2ncccn2)c1C1CC1 [10/3]
[3]
  CC50: > 100 µM
RORγt
  IC50: 0.1 to 1 µM
SARS-CoV-2
  EC50: 0.1 to 1 µM

## [2H]C([2H])([C@H](C)O)n1ncc(-c2onc(-c3c(F)cccc3Cl)c2-c2ncccn2)c1C(F)(F)F [Example 1, (S)-1-(4-(3-(2-Chloro-6-fluorophenyl)-4-(pyrimidin-2-yl)isoxazol-5-yl)-5-(trifluoromethyl)-1H-pyrazol-1-yl)propan-1,1-d2-2-ol]
[3]
  CC50: 22 µM
RORγt
  IC50: 0.01 to 0.1 µM
SARS-CoV-2
  EC50: < 0.1 µM

## [2H]C([2H])(CC(C)(C)O)n1ncc(-c2onc(-c3c(F)cccc3Cl)c2-c2ncccn2)c1C(F)(F)F [Example 3, 4-(4-(3-(2-Chloro-6-fluorophenyl)-4-(pyrimidin-2-yl)isoxazol-5-yl)-5-(trifluoromethyl)-1H-pyrazol-1-yl)-2-methylbutan-4,4-d2-2-ol]
[2]; female mice
  bioavailability: 34%
[2]; female mice, 5 mg/kg oral, cassette
  half-life: 1.5 h
[2]; female mice, 5 mg/kg oral, cassette, read-out: AUC0-24 h
  AUC(0-t): 771 ng·h/mL
[2]; female mice, 5 mg/kg oral, cassette, sampling to 24 h
  Cmax: 301 ng/mL
[2]; male mice
  bioavailability: 93%
[2]; male mice, 5 mg/kg oral, cassette
  half-life: 2.3 h
[2]; male mice, 5 mg/kg oral, cassette, read-out: AUC0-24 h
  AUC(0-t): 1040 ng·h/mL
[2]; male mice, 5 mg/kg oral, cassette, sampling to 24 h
  Cmax: 392 ng/mL
[3]
  CC50: 22 µM
[4]; female rats, iv 1 mg/kg
  AUC(0-inf): 3780 ng·h/mL
  AUC(0-t): 3660 ng·h/mL
  C0: 2090 ng/mL
  t1/2z: 6.6 h
[4]; female rats, po 5 mg/kg
  AUC(0-inf): 2950 ng·h/mL
  AUC(0-t): 2930 ng·h/mL
  CL/F: 132 mL/min/kg
  Cmax: 629 ng/mL
  t1/2z: 3.2 h
[4]; female rats
  bioavailability: 16%
[4]; male rats, iv 1 mg/kg
  AUC(0-inf): 3970 ng·h/mL
  AUC(0-t): 3720 ng·h/mL
  C0: 2460 ng/mL
  t1/2z: 7.2 h
[4]; male rats, po 5 mg/kg
  AUC(0-inf): 692 ng·h/mL
  AUC(0-t): 649 ng·h/mL
  CL/F: 343 mL/min/kg
  Cmax: 215 ng/mL
  t1/2z: 1.9 h
[4]; male rats
  bioavailability: 3.5%
RORγt
  IC50: 0.01 to 0.1 µM
[1]; both
  microsomal CLint: 2.2 µL/min/mg
[1]; male
  microsomal CLint: 1.1 µL/min/mg
[5]; female, mouse liver microsomes batch 4338001 female (Corning)
  microsomal CLint: 43.9 µL/min/mg
[5]; female, mouse liver microsomes batch MDO female (Bioreclamation IVT)
  microsomal CLint: 50.3 µL/min/mg
[5]; male, mouse liver microsomes batch 0010003 male (Corning)
  microsomal CLint: 24 µL/min/mg
SARS-CoV-2
  EC50: < 0.1 µM
[6]; rat liver microsomes batch 1910100 (Xenotech)
  microsomal CLint: 31.4 µL/min/mg
[6]; rat liver microsomes batch 4085002 (Corning)
  microsomal CLint: 29.7 µL/min/mg
[6]; rat liver microsomes batch 9078001 (Corning)
  microsomal CLint: 30.2 µL/min/mg

## CC(O)Cn1ncc(-c2onc(-c3c(F)cccc3Cl)c2-c2ncccn2)c1C(F)(F)F (stereo not shown) [Comparative Example C1/2, reference compound]
[1]; both
  microsomal CLint: 15.7 µL/min/mg

Reference: patent US20250243190A1, “NEW DEUTERATED RORGAMMA/RORGAMMAT INVERSE AGONISTS” (IMMUNIC AG, priority 2022, published 2025)
